Like-named read-outs stand apart in the source and are kept apart here.
Legend:
[1] = target: HEK-293 cells expressing human recombinant adenosine A2A receptor (Homo sapiens (Human), UniProt P29274); experiment: cAMP assay, Assay 2 (Eu-cAMP tracer / ULight-anti-cAMP); format: cell-based
Description: The functional activity of compounds was tested using one of the two assays to detect the present of cAMP. Activation of G-protein coupled receptors (such as A2A) results in activation of adenylcyclase which converts ATP into cAMP which is used as a downstream signaling molecule. Therefore, molecules which act as GPCR (or specifically A2A receptor) antagonists cause a decrease in intracellular cAMP concentration.
Both assays used HEK-293 cells expressing human recombinant adenosine A2A receptor were grown prior to the test in media without antibiotic.
Assay 2 (Table B2-2): 100 nL of test articles at 100× of final concentration were transferred to assay plate by Echo. Cells were washed twice with 5 mL of PBS […]. After aspirating the PBS and adding 1.5 mL versine, cells were incubated at 37° C. for 2-5 min. After centrifugation, 4 mL of medium was added and adjusted cell density to 5,000 cells/well with Stimulation Buffer. 10 μL of cells were aliquoted to the assay plate, centrifuged at 1000 rpm for 1 minute, and incubated for 60 minutes at room temperature. 5 μL 4×Eu-cAMP tracer solution and 5 μL 4×Ulight™-anti-cAMP solution were added to assay plate, followed by centrifugation and 60-minute incubation at room temperature. Plates were read on EnVision.

[2] = target: human adenosine A2A membrane preparation (Homo sapiens (Human), UniProt P29274); experiment: Adenosine A2A receptor radioligand binding assay (SPA beads, 3H-SCH 58261, 384 plate); details: for IC50: Table B1-2; for inhibition at 3 µM: read-out: A2a binding % inh @ 3000 nM; for inhibition at 0.01 µM: read-out: A2a binding % inh @ 10 nM; for inhibition at 0.1 µM: read-out: A2a binding % inh @ 100 nM; for inhibition at 1 µM: read-out: A2a binding % inh @ 1000 nM; for inhibition at 0.001 µM: read-out: A2a binding % inh @ 1 nM
Description: For the A2A adenosine receptor radioligand binding assay, the following modifications were made to the general protocol. GF/C filters (Perkin Elmer, 6005174), presoaked in 0.01% Brij for 2 h at room temperature were used. Filters were washed six times with 0.5 mL of ice-cold washing buffer (50 mM Tris pH 7.4) and 50 μL of Microscint 20 (Packard) was added in each well. The plates were then incubated for 15 min on an orbital shaker and then counted with a TopCount™ for 1 min/well. Another radioligand binding assay was used to evaluate the binding affinity for the adenosine A2A receptor assay was performed in duplicate in the wells of a 384 plate. Assay buffer contained DPBS 500 mM, MgCl2 0.1 mM, and 1% DMSO. Membrane-bead suspension was prepared by mixing 25.98 μL of human adenosine A2A membrane preparation (Perkin Elmer, RBHA2AM400UA) at 33.4 μg/mL, 28 μL of ADA at 20 μg/mL, and 932 μL of SPA beads at 3.33 mg/mL) and incubated the mixture for 20 min at room temperature. Mixed 20 μL of radiotracer (^3H-SCH 58261) at 15 nM to each well containing test articles at various concentrations and centrifuge the plate at 1000 rpm for 1 minute. Added 30 μL of the membraine-bead suspension to each well. Sealed the plates and incubated for 1 hr at room temperature with vigorous mixing on a plate mixer. Plates were read on Microbeta^2 (Perkin Elmer, 2450-0010).

[3] = HEK293, read-out: A2a cAMP % inh @ 100 nM
[4] = HEK293, 100 nM, Assay 2, read-out: A2a cAMP % inh @ 100 nM

human adenosine A2A membrane preparation, sequence (P29274 whole entry): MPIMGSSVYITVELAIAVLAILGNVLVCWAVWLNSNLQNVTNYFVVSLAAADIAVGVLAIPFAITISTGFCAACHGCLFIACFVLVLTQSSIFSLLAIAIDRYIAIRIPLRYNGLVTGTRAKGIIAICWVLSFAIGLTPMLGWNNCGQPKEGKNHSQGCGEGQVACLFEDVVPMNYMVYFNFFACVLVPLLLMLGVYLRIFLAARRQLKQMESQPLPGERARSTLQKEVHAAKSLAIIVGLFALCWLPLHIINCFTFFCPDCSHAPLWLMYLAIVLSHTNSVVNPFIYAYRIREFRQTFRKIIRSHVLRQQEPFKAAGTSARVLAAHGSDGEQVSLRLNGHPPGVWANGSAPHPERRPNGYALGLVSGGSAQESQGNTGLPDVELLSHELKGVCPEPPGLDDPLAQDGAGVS
HEK-293 cells expressing human recombinant adenosine A2A receptor, sequence (P29274 whole entry): as above

Structure (SMILES)	inhibition at 3 µM [2] [%]	inhibition at 0.1 µM [1, 4] [%]	other results
Nc1cnc(-c2cc(Cl)c3ncccc3c2)c(-n2ccccc2=O)n1 [Compound 1.308, 1-(6-amino-3-(8-chloroquinolin-6-yl)pyrazin-2-yl)pyridin-2(1H)-one]			IC50 ([1]; Assay 2): > 10000 nM; IC50 [2]: > 10000 nM
Cn1ccc(-c2nc(N)c(C#N)nc2-c2cc(Cl)c3ncccc3c2)n1 [Compound 1.309, 3-amino-6-(8-chloroquinolin-6-yl)-5-(1-methyl-1H-pyrazol-3-yl)pyrazine-2-carbonitrile]			IC50 ([1]; Assay 2): 13.1 nM; IC50 [2]: 1.6 nM
Cn1ccc(-c2nc(N)cnc2-c2ccc3c(=O)[nH]ccc3c2)n1 [Compound 1.315, 6-(5-amino-3-(1-methyl-1H-pyrazol-3-yl)pyrazin-2-yl)isoquinolin-1-ol]			IC50 ([1]; Assay 2): 1400 nM; IC50 [2]: 101 nM
Cc1ncc(-c2nc(N)cnc2-c2cc(Cl)c3ncccc3c2)s1 [Compound 1.318, 5-(8-chloroquinolin-6-yl)-6-(2-methylthiazol-5-yl)pyrazin-2-amine]			IC50 ([1]; Assay 2): 200 nM; IC50 [2]: 9.4 nM
Nc1cnc(-c2ccc3ncccc3c2)c(-c2ccccn2)n1 [Compound No. 1.25, 6-(pyridin-2-yl)-5-(quinolin-6-yl)pyrazin-2-amine]	48		inhibition at 0.1 µM [1, 3]: 6%
Nc1cnc(-c2ccc3ncoc3c2)c(-c2ccccc2)n1 [Compound No. 1.35, 5-(benzo[d]oxazol-6-yl)-6-phenylpyrazin-2-amine]	64	22	
Cc1ccc(-c2nc(N)cnc2-c2cc(Cl)c3[nH]cnc3c2)o1 [Compound No. 1.45, 5-(7-chloro-1H-benzimidazol-5-yl)-6-(5-methylfuran-2-yl)pyrazin-2-amine]	91		inhibition at 0.1 µM [1, 3]: 100%
Nc1cnc(-c2ccc3c(c2)CCCN3)c(-c2ccccc2)n1 [Compound No. 1.186, 6-phenyl-5-(1,2,3,4-tetrahydroquinolin-6-yl)pyrazin-2-amine]	30	12	
Nc1cnc(-c2ccc3[nH]ncc3c2)c(-c2ccccc2)n1 [Compound No. 1.270, 5-(1H-indazol-5-yl)-6-phenylpyrazin-2-amine]	100	100	
Cc1ccn(-c2nc(N)cnc2-c2cc(Cl)c3ncccc3c2)n1 [Compound No. 1.271, 5-(8-chloroquinolin-6-yl)-6-(3-methyl-1H-pyrazol-1-yl)pyrazin-2-amine]			IC50 ([1]; Assay 2): 50 nM; IC50 [2]: 2.1 nM
N#Cc1nc(-c2cc(Cl)c3[nH]cnc3c2)c(-c2ccccc2)nc1N [Compound No. 1.277, 3-amino-6-(7-chloro-1H-benzimidazol-5-yl)-5-phenylpyrazine-2-carbonitrile]	83	44	
Nc1cnc(-c2cc(Cl)c3ncccc3c2)c(-c2cc3ccccc3o2)n1 [Compound No. 1.278]	95		IC50 ([1]; Assay 2): 304 nM
Nc1cnc(-c2ccc3ncccc3c2)c(-c2nccs2)n1 [Compound No. 1.279, 5-(quinolin-6-yl)-6-(1,3-thiazol-2-yl)pyrazin-2-amine]	58	9	
Cc1ccn(-c2nc(N)cnc2-c2ccc3ncccc3c2)n1 [Compound No. 1.280]	75	51	
Cc1ccn(-c2nc(N)cnc2-c2ccc3ncsc3c2)n1 [Compound No. 1.286, 5-(benzo[d]thiazol-6-yl)-6-(3-methyl-1H-pyrazol-1-yl)pyrazin-2-amine]		20	inhibition at 0.001 µM [2]: 40%; inhibition at 0.01 µM [2]: 87%; inhibition at 0.1 µM [2]: 96%; inhibition at 1 µM [2]: 86%
Cc1ccn(-c2nc(N)cnc2-c2ccc3[nH]ncc3c2)n1 [Compound No. 1.287, 5-(1H-indazol-5-yl)-6-(3-methyl-1H-pyrazol-1-yl)pyrazin-2-amine]		16	inhibition at 0.001 µM [2]: 42%; inhibition at 0.01 µM [2]: 77%; inhibition at 0.1 µM [2]: 90%; inhibition at 1 µM [2]: 80%
Cc1ncc(-c2nc(N)cnc2-c2ccc3ncccc3c2)s1 [Compound No. 1.288, 6-(2-methylthiazol-5-yl)-5-(quinolin-6-yl)pyrazin-2-amine]			IC50 ([1]; Assay 2): 1050 nM; IC50 [2]: 55.5 nM; inhibition at 0.001 µM [2]: 42%; inhibition at 0.01 µM [2]: 83%; inhibition at 0.1 µM [2]: 86%; inhibition at 1 µM [2]: 84%
Cc1ccn(-c2nc(N)c(C#N)nc2-c2ccc3ncccc3c2)n1 [Compound No. 1.290, 3-amino-5-(3-methyl-1H-pyrazol-1-yl)-6-(quinolin-6-yl)pyrazine-2-carbonitrile]			IC50 ([1]; Assay 2): 35.7 nM; IC50 [2]: 3.3 nM; inhibition at 0.001 µM [2]: 57%; inhibition at 0.01 µM [2]: 85%; inhibition at 0.1 µM [2]: 89%; inhibition at 1 µM [2]: 89%

Continued, in another order:

inhibition at 3 µM [2] [%]	inhibition at 0.1 µM [1, 4] [%]	Structure (SMILES)	other results
81	77	Nc1cnc(-c2ccc3ncsc3c2)c(-c2ccccc2)n1 [Compound No. 1.36, 5-(benzo[d]thiazol-6-yl)-6-phenylpyrazin-2-amine]	
20	9	Nc1cnc(-c2ccc3ccccc3c2)c(-c2ccccc2)n1 [Compound No. 1.185, 5-(naphthalen-2-yl)-6-phenylpyrazin-2-amine]	
89	93	N#Cc1nc(-c2ccc3ncsc3c2)c(-c2ccccc2)nc1N [Compound No. 1.192, 3-amino-6-(benzo[d]thiazol-6-yl)-5-phenylpyrazine-2-carbonitrile]	
83	87	N#Cc1nc(-c2ccc3ncoc3c2)c(-c2ccccc2)nc1N [Compound No. 1.193, 3-amino-6-(benzo[d]oxazol-6-yl)-5-phenylpyrazine-2-carbonitrile]	
100	100	Cc1ccc(-c2nc(N)cnc2-c2ccc3ncccc3c2)s1 [Compound No. 1.210, 6-(5-methylthiophen-2-yl)-5-(quinolin-6-yl)pyrazin-2-amine]	
11	7	Nc1nc(-c2ccccc2)c(-c2ccc3ncccc3c2)nc1C(=O)O [Compound No. 1.238, 3-amino-5-phenyl-6-(quinolin-6-yl) pyrazine-2-carboxylic acid]	
86	80	Nc1nc(-c2ccccc2)c(-c2ccc3ncccc3c2)nc1O [Compound No. 1.241, 3-amino-5-phenyl-6-(quinolin-6-yl)pyrazin-2-ol]	
80	96	NC(=O)c1nc(-c2ccc3ncccc3c2)c(-c2ccccc2)nc1N [Compound No. 1.272, 3-amino-5-phenyl-6-(quinolin-6-yl)pyrazine-2-carboxamide]	
100		Cc1cccc(CNC(=O)c2nc(-c3ccc4ncccc4c3)c(-c3ccccc3)nc2N)n1 [Compound No. 1.273, 3-amino-N-((6-methylpyridin-2-yl)methyl)-5-phenyl-6-(quinolin-6-yl)pyrazine-2-carboxamide]	IC50 ([1]; Assay 2): 12 nM
80	60	N#Cc1nc(-c2ccc3[nH]ncc3c2)c(-c2ccccc2)nc1N [Compound No. 1.274, 3-amino-6-(1H-indazol-5-yl)-5-phenylpyrazine-2-carbonitrile]	
11	0	Nc1nc(-c2ccccc2)c(-c2ccc3ncccc3c2)nc1N1CCOCC1 [Compound No. 1.275, 3-morpholino-6-phenyl-5-(quinolin-6-yl)pyrazin-2-amine]	
24	0	CN1CCN(c2nc(-c3ccc4ncccc4c3)c(-c3ccccc3)nc2N)CC1 [Compound No. 1.276]	
	34	Cn1ccc(-c2nc(N)cnc2-c2ccc3ncccc3c2)n1 [Compound No. 1.285, 6-(1-methyl-1H-pyrazol-3-yl)-5-(quinolin-6-yl)pyrazin-2-amine]	inhibition at 0.01 µM [2]: 56%; inhibition at 0.1 µM [2]: 76%; inhibition at 1 µM [2]: 90%

Source: US11028058B2, “Heterocyclic compounds as adenosine antagonists” (NUVATION BIO INC., priority 2017, dated 2021)
